Reference: PubChem BioAssay AID588414 (Sanford-Burnham Center for Chemical Genomics, 2011)
The source made the active and inactive calls.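 The calls were made as follows: active = IC50 at or below 20 µM; inactive = the rest.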

These compounds were tested against Glucose-6-phosphate 1-dehydrogenase (Homo sapiens) (UniProt P11413) (assay: human G6PD enzyme inhibitors, SAR follow-up, selectivity assay for P. falciparum G6PD inhibitor project, biochemical, fluorescence, dose response (AID 588414)). Conditions: NADPH-diaphorase-resazurin fluorescence.
Chain of Glucose-6-phosphate 1-dehydrogenase (Homo sapiens) (P11413 whole entry, looked up): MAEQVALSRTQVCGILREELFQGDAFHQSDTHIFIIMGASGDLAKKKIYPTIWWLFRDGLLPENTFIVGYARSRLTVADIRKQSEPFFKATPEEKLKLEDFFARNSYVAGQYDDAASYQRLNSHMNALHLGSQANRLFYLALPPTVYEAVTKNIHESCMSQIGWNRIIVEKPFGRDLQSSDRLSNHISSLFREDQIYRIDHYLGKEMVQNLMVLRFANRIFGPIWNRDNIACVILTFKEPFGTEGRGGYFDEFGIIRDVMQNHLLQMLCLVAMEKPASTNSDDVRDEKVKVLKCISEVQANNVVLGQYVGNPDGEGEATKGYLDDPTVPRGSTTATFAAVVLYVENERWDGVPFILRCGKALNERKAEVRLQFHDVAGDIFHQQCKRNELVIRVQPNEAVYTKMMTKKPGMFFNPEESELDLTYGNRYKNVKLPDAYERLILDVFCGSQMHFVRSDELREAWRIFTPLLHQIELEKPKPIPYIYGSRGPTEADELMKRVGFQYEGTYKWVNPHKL

IC50, inactive:
COc1cccc(C(=O)Nc2nnc(S(=O)(=O)N3CCCCCC3)s2)c1 > 80 µM
CCCN(CCC)CCNC(=O)c1ccc2c(c1)NC(=O)/C(=C/c1ccccc1)S2 > 80 µM
COc1ccccc1C(=O)Nc1nnc(S(=O)(=O)N2CCCCCC2)s1 > 80 µM
CCN(CCNC(=O)c1ccc2c(c1)N(CC)C(=O)c1ccccc1S2)c1ccccc1 > 80 µM
O=C(Nc1nnc(S(=O)(=O)N2CCCc3ccccc32)s1)c1cccc(F)c1 > 80 µM
CN(CCNC(=O)c1ccc2c(c1)NC(=O)c1ccccc1S2)C1CCCCC1 > 80 µM
CCN(CC)CCNC(=O)c1ccc2c(c1)NC(=O)/C(=C\c1ccccc1F)S2 > 80 µM
Cc1cccc(C(=O)Nc2nnc(S(=O)(=O)N3CCCc4ccccc43)s2)c1 > 80 µM
Cc1ccccc1C(=O)Nc1nnc(S(=O)(=O)N2CCCc3ccccc32)s1 > 80 µM
O=C(Nc1nnc(S(=O)(=O)N2CCCCCC2)s1)c1cccc(F)c1 > 80 µM
CN(C)CCNC(=O)c1ccc2c(c1)NC(=O)/C(=C\c1cccc(Cl)c1)S2 > 80 µM
CCN1CCCC1CNC(=O)c1ccc2c(c1)N(Cc1cccc(F)c1)C(=O)c1ccccc1S2 (stereo not drawn) > 80 µM
O=C(Nc1nnc(S(=O)(=O)N2CCCCCC2)s1)c1cccc(Br)c1 > 80 µM
Cc1cccc(C(=O)Nc2nnc(S(=O)(=O)N3CCCCCC3)s2)c1 > 80 µM
CCN1CCCC1CNC(=O)c1ccc2c(c1)NC(=O)c1ccccc1S2 (stereo not drawn) > 80 µM
CCC(C)N(CCNC(=O)c1ccc2c(c1)NC(=O)c1ccccc1S2)C1CCCCC1 (stereo not drawn) > 80 µM
CCN(CC)CCNC(=O)c1ccc2c(c1)NC(=O)/C(=C/c1ccccc1)S2 > 80 µM
Cc1ccc(CN2C(=O)c3ccccc3Sc3ccc(C(=O)NCCN(C)C)cc32)cc1 > 80 µM
Cc1cccc(N2CCN(CCNC(=O)c3ccc4c(c3)NC(=O)c3ccccc3S4)CC2)c1C > 80 µM
CCN(CC)CCNC(=O)c1ccc2c(c1)N(Cc1ccccc1Cl)C(=O)c1ccccc1S2 > 80 µM
O=C(Nc1nnc(S(=O)(=O)N2CCCCCC2)s1)c1ccccc1 > 80 µM
Cc1cccc(/C=C2/Sc3ccc(C(=O)NCCN4CCCC4)cc3NC2=O)c1 > 80 µM
CCN1CCCC1CNC(=O)c1ccc2c(c1)N(Cc1ccccc1F)C(=O)c1ccccc1S2 (stereo not drawn) > 80 µM
O=C1Nc2cc(C(=O)NCCN3CCCCCC3)ccc2S/C1=C/c1ccccc1Cl > 80 µM
Cc1cccc(C(=O)Nc2nnc(S(=O)(=O)N3c4ccccc4CC3C)s2)c1 (stereo not drawn) > 80 µM
CCN(CC)CCNC(=O)c1ccc2c(c1)NC(=O)/C(=C\c1cccc(C)c1)S2 > 80 µM
CC1Cc2ccccc2N1S(=O)(=O)c1nnc(NC(=O)c2cccc(F)c2)s1 (stereo not drawn) > 80 µM
O=C(Nc1nnc(S(=O)(=O)N2CCCCCC2)s1)c1ccccc1F > 80 µM
Cc1ccc(C(=O)Nc2nnc(S(=O)(=O)N3CCCCCC3)s2)cc1 > 80 µM
O=C1Nc2cc(C(=O)NCCN3CCCC3)ccc2S/C1=C/c1ccccc1F > 80 µM
CN(C)CCNC(=O)c1ccc2c(c1)NC(=O)/C(=C\c1ccccc1F)S2 > 80 µM
COc1ccc(/C=C2/Sc3ccc(C(=O)NCCN4CCCCCC4)cc3NC2=O)cc1 > 80 µM
CCN(CC)CCNC(=O)c1ccc2c(c1)NC(=O)/C(=C\c1ccc(OC)cc1)S2 > 80 µM
CCN(CC)CCNC(=O)c1ccc2c(c1)N(Cc1ccc(C)cc1)C(=O)c1ccccc1S2 > 80 µM
CCN(CC)CCNC(=O)c1ccc2c(c1)NC(=O)c1ccccc1S2 > 80 µM
O=C(Nc1nnc(S(=O)(=O)N2CCCCCC2)s1)c1cccc(Cl)c1 > 80 µM
CCN(CC)CCNC(=O)c1ccc2c(c1)NC(=O)/C(=C\c1ccccc1Cl)S2 > 80 µM
CCN1CCCC1CNC(=O)c1ccc2c(c1)N(Cc1ccccc1Cl)C(=O)c1ccccc1S2 (stereo not drawn) > 80 µM
CCN(CCNC(=O)c1ccc2c(c1)N(Cc1cc(C)ccc1C)C(=O)c1ccccc1S2)c1ccccc1 > 80 µM
O=C1Nc2cc(C(=O)NCCN3CCCC3)ccc2S/C1=C/c1ccccc1Cl > 80 µM
CCN1CCCC1CNC(=O)c1ccc2c(c1)N(Cc1ccc(C(F)(F)F)cc1)C(=O)c1ccccc1S2 (stereo not drawn) > 80 µM
O=C(Nc1nnc(S(=O)(=O)N2CCCCCC2)s1)c1ccc(F)cc1 > 80 µM
CCN(CCNC(=O)c1ccc2c(c1)NC(=O)c1ccccc1S2)c1ccccc1 > 80 µM
CCCN(CCC)CCNC(=O)c1ccc2c(c1)NC(=O)/C(=C\c1ccc(C)cc1)S2 > 80 µM
O=C(Nc1nnc(S(=O)(=O)N2CCCCC2)s1)c1cccc(F)c1 > 80 µM
O=C1Nc2cc(C(=O)NCCN3CCCCCC3)ccc2S/C1=C/c1ccccc1F > 80 µM
COc1cccc(/C=C2/Sc3ccc(C(=O)NCCN4CCCC4)cc3NC2=O)c1 > 80 µM
O=C(Nc1nnc(S(=O)(=O)N2CCOCC2)s1)c1cccc(F)c1 > 80 µM
COc1ccc(C(=O)Nc2nnc(S(=O)(=O)N3CCCCCC3)s2)cc1OC > 80 µM
Cc1ccc(C(=O)Nc2nnc(S(=O)(=O)N3c4ccccc4CC3C)s2)cc1 (stereo not drawn) > 80 µM
CCN1CCCC1CNC(=O)c1ccc2c(c1)NC(=O)/C(=C\c1ccccc1Cl)S2 (stereo not drawn) > 80 µM
O=C(Nc1nnc(S(=O)(=O)N2CCCCCC2)s1)c1ccco1 > 80 µM
CCN1CCCC1CNC(=O)c1ccc2c(c1)NC(=O)/C(=C\c1ccc(C)cc1)S2 (stereo not drawn) > 80 µM
COc1ccc(C(=O)Nc2nnc(S(=O)(=O)N3CCCCCC3)s2)cc1 > 80 µM
Cc1ccccc1C(=O)Nc1nnc(S(=O)(=O)N2CCCCCC2)s1 > 80 µM
CCN1CCCC1CNC(=O)c1ccc2c(c1)NC(=O)/C(=C\c1ccccc1F)S2 (stereo not drawn) > 80 µM
COc1ccc(/C=C2/Sc3ccc(C(=O)NCCN4CCCC4)cc3NC2=O)cc1 > 80 µM
Cc1ccc(C(=O)Nc2nnc(S(=O)(=O)N3CCCc4ccccc43)s2)cc1 > 80 µM
CC1Cc2ccccc2N1S(=O)(=O)c1nnc(NC(=O)c2cccc(Br)c2)s1 (stereo not drawn) > 80 µM
Cc1cccc(C(=O)Nc2nnc(S(=O)(=O)N3CCC(C)CC3)s2)c1 > 80 µM
COc1cccc(/C=C2/Sc3ccc(C(=O)NCCN4CCCCCC4)cc3NC2=O)c1 > 80 µM
CCN(CC)CCNC(=O)c1ccc2c(c1)N(Cc1cc(C)ccc1C)C(=O)c1ccccc1S2 > 80 µM
O=C(Nc1nnc(S(=O)(=O)N2CCCCCC2)s1)C1CCCCC1 > 80 µM
CCN1CCCC1CNC(=O)c1ccc2c(c1)NC(=O)/C(=C/c1ccccc1F)S2 (stereo not drawn) > 80 µM
Cc1cccc(C(=O)Nc2nnc(S(=O)(=O)N3CCOCC3)s2)c1 > 80 µM
COc1ccc(/C=C2/Sc3ccc(C(=O)NCCN(C)C)cc3NC2=O)cc1 > 80 µM
CCN(CC)CCNC(=O)c1ccc2c(c1)NC(=O)/C(=C\c1ccc(OC)c(OC)c1)S2 > 80 µM
CCOc1ccc(C(=O)Nc2nnc(S(=O)(=O)N3CCCCCC3)s2)cc1 > 80 µM
